One assay has as its target T1, TBK1 (Homo sapiens, UniProt Q9UHD2).
T1 sequence (Q9UHD2 1-729): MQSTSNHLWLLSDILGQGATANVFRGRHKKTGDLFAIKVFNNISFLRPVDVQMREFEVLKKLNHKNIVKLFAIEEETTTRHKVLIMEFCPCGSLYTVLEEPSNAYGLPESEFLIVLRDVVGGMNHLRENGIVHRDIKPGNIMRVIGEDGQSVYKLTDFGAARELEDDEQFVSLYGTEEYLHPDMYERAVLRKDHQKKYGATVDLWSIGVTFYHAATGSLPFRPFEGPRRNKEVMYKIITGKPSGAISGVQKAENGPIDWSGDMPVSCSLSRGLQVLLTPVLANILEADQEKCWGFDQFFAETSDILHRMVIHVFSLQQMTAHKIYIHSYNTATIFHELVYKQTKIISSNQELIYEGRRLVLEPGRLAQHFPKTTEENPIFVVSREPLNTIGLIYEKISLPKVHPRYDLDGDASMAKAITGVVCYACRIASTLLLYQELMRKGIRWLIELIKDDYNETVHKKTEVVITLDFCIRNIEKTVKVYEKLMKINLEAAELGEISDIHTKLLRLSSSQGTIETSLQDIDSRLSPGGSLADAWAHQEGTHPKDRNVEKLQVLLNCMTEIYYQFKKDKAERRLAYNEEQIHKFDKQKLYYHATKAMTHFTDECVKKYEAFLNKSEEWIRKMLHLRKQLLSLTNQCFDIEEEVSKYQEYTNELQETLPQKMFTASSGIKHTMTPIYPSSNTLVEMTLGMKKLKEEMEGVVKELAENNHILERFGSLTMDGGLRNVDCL
Description: TBK Biochemical Assay. As to conditions: read-out: TBK1 IC50. Summed up:
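Caliper LabChip mobility-shift readout of substrate and product after 90 min of TBK1 reaction at 25° C and stop-buffer addition. Compounds tested in 1:4 serial dilution over 10 points from 30 uM final at 1% DMSO; staurosporine 10 uM final defines full inhibition.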

In another assay the target is T2, IKKε (Homo sapiens, UniProt Q14164).
T2 sequence (Q14164 1-716): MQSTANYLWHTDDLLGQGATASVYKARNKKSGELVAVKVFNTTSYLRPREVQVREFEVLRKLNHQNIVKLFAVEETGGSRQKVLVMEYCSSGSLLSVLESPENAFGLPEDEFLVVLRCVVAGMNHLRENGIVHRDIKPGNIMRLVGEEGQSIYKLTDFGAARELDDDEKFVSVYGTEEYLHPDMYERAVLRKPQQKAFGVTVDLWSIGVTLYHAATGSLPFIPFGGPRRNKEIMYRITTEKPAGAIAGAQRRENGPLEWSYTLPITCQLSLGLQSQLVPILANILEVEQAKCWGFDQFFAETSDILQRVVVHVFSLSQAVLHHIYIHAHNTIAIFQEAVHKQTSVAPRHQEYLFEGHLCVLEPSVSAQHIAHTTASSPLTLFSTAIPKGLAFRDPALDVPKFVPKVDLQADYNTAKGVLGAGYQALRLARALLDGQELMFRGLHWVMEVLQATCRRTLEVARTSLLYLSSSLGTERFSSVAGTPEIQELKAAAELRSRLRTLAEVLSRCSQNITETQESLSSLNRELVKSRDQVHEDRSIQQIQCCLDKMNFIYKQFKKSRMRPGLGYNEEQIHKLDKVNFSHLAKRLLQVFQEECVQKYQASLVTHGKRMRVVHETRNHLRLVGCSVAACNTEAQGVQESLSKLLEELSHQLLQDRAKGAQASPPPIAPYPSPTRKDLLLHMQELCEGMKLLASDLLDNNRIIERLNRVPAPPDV
Description: IKKe Biochemical Assay. The conditions noted are these: read-out: IKKε IC50. Summed up: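 Activity was measured as mobility-shift separation of phosphorylated from unphosphorylated substrate on a LabChip EZ Reader. Compound was titrated from 30 uM final in 10 points, 1:4 steps, with 1% DMSO, and enzyme plus substrate reacted 90 min at 25° C before stop buffer. Control wells held 10 uM staurosporine.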

Drawing on patent publication US10428080B2, “TBK/IKK inhibitor compounds and uses thereof” (Merck Patent GmbH, priority 2015, dated 2019), this text covers IC50 for 24 molecules.

SMILES strings stand for the structures. Counter-ions that a name gives are not always drawn.

One may read the IC50 as the concentration needed to halve the response being measured.

On to `COc1cc(C(=O)NCC2CCCCC2(F)F)ccc1-c1cc2nccc(-c3ccc(OC4CCOCC4)c(C#N)c3)c2o1` (stereo not drawn) [Compound 151, 4-{7-[3-Cyano-4-(tetrahydro-pyran-4-yloxy)-phenyl]-furo[3,2-b]pyridin-2-yl}-N-(2,2-difluoro-cyclohexylmethyl)-3-methoxy-benzamide], for which the IC50 on TBK1 and on IKKε was below 100 nM throughout.

For the molecule `COc1cc(C(=O)N(C)C)ccc1-c1cc2nccc(-c3ccc(OCC4CCNC4)c(C#N)c3)c2o1` (stereo not drawn) [Compound 152, 4-{7-[3-Cyano-4-(pyrrolidin-3-ylmethoxy)-phenyl]-furo[3,2-b]pyridin-2-yl}-3-methoxy-N,N-dimethyl-benzamide hydrochloride], the half-maximal inhibitory concentration (IC50) on TBK1 and on IKKε was below 100 nM in each case.

`COc1cc(C(=O)N(C)C)ccc1-c1cc2nccc(-c3ccc(OC4CCN(C(C)C)C4)c(C#N)c3)c2o1` (stereo not drawn) [Compound 157, 4-{7-[3-Cyano-4-(1-isopropyl-pyrrolidin-3-yloxy)-phenyl]-furo[3,2-b]pyridin-2-yl}-3-methoxy-N,N-dimethyl-benzamide]: the IC50 was 100 to 1000 nM at TBK1 and below 100 nM at IKKε.

Take `N#Cc1cc(-c2ccnc3cc(-c4ccc(C(=O)O)cc4)oc23)ccc1OC1CC(CO)(CCl)C1` (stereo not drawn) [Compound 162]: the figures for the half-inhibitory concentration (IC50) at TBK1 and on IKKε were 100 to 1000 nM and below 100 nM, respectively.

Turning to `COc1cc(C(=O)N(C)C)ccc1-c1cc2nccc(-c3ccc(NC4CCCOC4)c(C#N)c3)c2o1` (stereo not drawn) [Compound 164], the half-inhibitory concentration (IC50) at TBK1 and on IKKε was 100 to 1000 nM throughout.

Take `COc1cc(C(=O)N(C)C)ccc1-c1cc2nccc(-c3ccc(OCC4CNC4)c(C#N)c3)c2o1` [Compound 165, 4-{7-[4-(Azetidin-3-ylmethoxy)-3-cyano-phenyl]-furo[3,2-b]pyridin-2-yl}-3-methoxy-N,N-dimethyl-benzamide]: the IC50 at TBK1 and on IKKε was 100 to 1000 nM throughout.

For the molecule `N#Cc1cc(-c2ccnc3cc(-c4ccc(C(=O)O)cc4)oc23)ccc1Oc1ccccc1F` [Compound 169, 4-{7-[3-Cyano-4-(2-fluoro-phenoxy)-phenyl]-furo[3,2-b]pyridin-2-yl}-benzoic acid], the 50% inhibitory concentration (IC50) at TBK1 and at IKKε was 100 to 1000 nM in each case.

For `CN(C)C(=O)c1ccc(-c2cc3nccc(-c4ccc(N5CC[C@@H](N(C)C)C5)c(C#N)c4)c3o2)cc1` [Compound 172, 4-{7-[3-Cyano-4-((R)-3-dimethylamino-pyrrolidin-1-yl)-phenyl]-furo[3,2-b]pyridin-2-yl}-N,N-dimethyl-benzamide], the half-maximal inhibitory concentration (IC50) at TBK1 and on IKKε was 100 to 1000 nM throughout.

Turning to `CN(C)C(=O)c1ccc(-c2cc3nccc(-c4ccc(O[C@H]5CCCOC5)c(C#N)c4)c3o2)cc1` [Compound 174, 4-(7-{3-Cyano-4-[(S)-(tetrahydro-pyran-3-yl)oxy]-phenyl}-furo[3,2-b]pyridin-2-yl)-N,N-dimethyl-benzamide], the IC50 at TBK1 and at IKKε was 100 to 1000 nM throughout.

For `CN(C)C(=O)c1ccc(-c2cc3nccc(-c4ccc(O)c(C#N)c4)c3o2)cc1` [Compound 175, 4-[7-(3-Cyano-4-hydroxy-phenyl)-furo[3,2-b]pyridin-2-yl]-N,N-dimethyl-benzamide], the IC50 at TBK1 and at IKKε was 100 to 1000 nM in each case.

`CN(C)C(=O)c1ccc(-c2cc3nccc(-c4ccc(Oc5cccc(F)c5)c(C#N)c4)c3o2)cc1` [Compound 176, 4-{7-[3-Cyano-4-(3-fluoro-phenoxy)-phenyl]-furo[3,2-b]pyridin-2-yl}-N,N-dimethyl-benzamide]: the IC50 on TBK1 and on IKKε was 100 to 1000 nM each time.

`CN(C)C(=O)c1ccc(-c2cc3nccc(-c4ccc(Oc5ccccc5F)c(C#N)c4)c3o2)cc1` [Compound 178, 4-{7-[3-Cyano-4-(2-fluoro-phenoxy)-phenyl]-furo[3,2-b]pyridin-2-yl}-N,N-dimethyl-benzamide]: the IC50 at TBK1 and on IKKε was 100 to 1000 nM throughout.

`COc1cc(C(=O)NCC2CCCCC2(F)F)ccc1-c1cc2nccc(-c3ccc(NC4CCOCC4)c(C#N)c3)c2o1` (stereo not drawn) [Compound 180, 4-{7-[3-Cyano-4-(tetrahydro-pyran-4-ylamino)-phenyl]-furo[3,2-b]pyridin-2-yl}-N-(2,2-difluoro-cyclohexylmethyl)-3-methoxy-benzamide]: the half-maximal inhibitory concentration (IC50) on TBK1 and on IKKε was 100 to 1000 nM each time.

Regarding `CN(C)C(=O)c1ccc(-c2cc3nccc(-c4ccc(Oc5cccnc5)c(C#N)c4)c3o2)cc1` [Compound 181, 4-{7-[3-Cyano-4-(pyridin-3-yloxy)-phenyl]-furo[3,2-b]pyridin-2-yl}-N,N-dimethyl-benzamide], the IC50 at TBK1 and at IKKε was 100 to 1000 nM each time.

Turning to `COc1cc(C(=O)N(C)C)ccc1-c1cc2nccc(-c3ccc(OC4CCN(C(=O)OC(C)(C)C)CC4)c(C#N)c3)c2o1` [Compound 182], the IC50 on TBK1 and on IKKε was above 5000 nM each time.

Consider `CC(C)(C)OC(=O)Nc1ccc(-c2cc3nccc(-c4ccc(OC5CCOCC5)c(C#N)c4)c3o2)cc1` [Compound 183], for which the figures for the IC50 on TBK1 and on IKKε were 1000 to 5000 nM and 100 to 1000 nM, respectively.

On to `CC1CC(Oc2ccc(-c3ccnc4cc(-c5ccc(C(=O)N(C)C)cc5)oc34)cc2C#N)CCO1` (stereo not drawn) [Compound 184, 4-{7-[3-Cyano-4-(2-methyl-tetrahydro-pyran-4-yloxy)-phenyl]-furo[3,2-b]pyridin-2-yl}-N,N-dimethyl-benzamide], for which the 50% inhibitory concentration (IC50) at TBK1 fell in the range of 1000 to 5000 nM; on IKKε it was 100 to 1000 nM.

In the case of `CN(C)C(=O)c1ccc(-c2cc3nccc(-c4ccc(OC5CCNCC5)c(C#N)c4)c3o2)cc1` [Compound 185, 4-{7-[3-Cyano-4-(piperidin-4-yloxy)-phenyl]-furo[3,2-b]pyridin-2-yl}-N,N-dimethyl-benzamide hydrochloride], the 50% inhibitory concentration (IC50) was 1000 to 5000 nM at TBK1 and 100 to 1000 nM at IKKε.

For the molecule `N#Cc1cc(-c2ccnc3cc(-c4ccc(C(=O)O)cc4)oc23)ccc1Oc1cccnc1` [Compound 186, 4-{7-[3-Cyano-4-(pyridin-3-yloxy)-phenyl]-furo[3,2-b]pyridin-2-yl}-benzoic acid], the results for the IC50 on TBK1 and on IKKε were 1000 to 5000 nM and 100 to 1000 nM, respectively.

In the case of `CCOC(=O)c1ccc(-c2cc3nccc(-c4ccc(N5CC[C@H](F)C5)c(C#N)c4)c3o2)cc1` [Compound 187, 4-{7-[3-Cyano-4-((S)-3-fluoro-pyrrolidin-1-yl)-phenyl]-furo[3,2-b]pyridin-2-yl}-benzoic acid ethyl ester], the values for the IC50 on TBK1 and at IKKε were 1000 to 5000 nM and 100 to 1000 nM, respectively.

As for `N#Cc1cc(-c2ccnc3cc(-c4ccc(C(=O)O)cc4)oc23)ccc1Oc1cccc(F)c1` [Compound 188, 4-{7-[3-Cyano-4-(3-fluoro-phenoxy)-phenyl]-furo[3,2-b]pyridin-2-yl}-benzoic acid], the half-maximal inhibitory concentration (IC50) on TBK1 and on IKKε was 1000 to 5000 nM throughout.

As for `CC1CC(Oc2ccc(-c3ccnc4cc(-c5ccc(C(=O)O)cc5)oc34)cc2C#N)CC(C)O1` (stereo not drawn) [Compound 189], the values for the IC50 at TBK1 and at IKKε were above 5000 nM and 1000 to 5000 nM, respectively.

As for `CN(C)C(=O)c1ccc(-c2cc3nccc(-c4ccc(OC5CCNCC5)c(C#N)c4)c3o2)nc1` [Compound 190], the half-maximal inhibitory concentration (IC50) on TBK1 was above 5000 nM; at IKKε, 100 to 1000 nM.

Consider `CCOC(=O)c1ccc(-c2cc3nccc(-c4ccc(N5CC[C@@H](F)C5)c(C#N)c4)c3o2)cc1` [Compound 191, 4-{7-[3-Cyano-4-((R)-3-fluoro-pyrrolidin-1-yl)-phenyl]-furo[3,2-b]pyridin-2-yl}-benzoic acid ethyl ester], for which the figures for the IC50 on TBK1 and on IKKε were above 5000 nM and 100 to 1000 nM, respectively.
